# From patent US11242343B2 (Incyte Corporation, priority 2016, dated 2022)
# Molecular target: HPK1 (Homo sapiens, UniProt Q92918)
# Test: HPK1 Kinase Binding Assay
# Conditions: LanthaScreen tracer 222 binding, one hour incubation at 25° C.
# Method: Example A. HPK1 Kinase Binding Assay
# A stock solution of 1 mM test compound was prepared in DMSO. The compound plate was prepared by 3-fold and 11-point serial dilutions. 0.1 μL of the compound in DMSO was transferred from the compound plate to the white 384 well polystyrene plates. The assay buffer contained 50 mM HEPES, pH 7.5, 0.01% Tween-20, 5 mM MgCl2, 0.01% BSA, and 5 mM DTT. 5 μl of 4 nM active HPK1 (SignalChem M23-11G) prepared in the buffer was added to the plate. The enzyme concentration given was based on the given stock concentration reported by the vender. 5 μl of 18 nM tracer 222 (ThermoFisher PV6121) and 4 nM LanthaScreen Eu-Anti GST antibody (ThermoFisher PV5595) were added. After one hour incubation at 25° C., the plates were read on a PHERAstar FS plate reader (BMG Labtech). Ki values were determined.
# Sequence of HPK1 (Q92918 whole entry, looked up): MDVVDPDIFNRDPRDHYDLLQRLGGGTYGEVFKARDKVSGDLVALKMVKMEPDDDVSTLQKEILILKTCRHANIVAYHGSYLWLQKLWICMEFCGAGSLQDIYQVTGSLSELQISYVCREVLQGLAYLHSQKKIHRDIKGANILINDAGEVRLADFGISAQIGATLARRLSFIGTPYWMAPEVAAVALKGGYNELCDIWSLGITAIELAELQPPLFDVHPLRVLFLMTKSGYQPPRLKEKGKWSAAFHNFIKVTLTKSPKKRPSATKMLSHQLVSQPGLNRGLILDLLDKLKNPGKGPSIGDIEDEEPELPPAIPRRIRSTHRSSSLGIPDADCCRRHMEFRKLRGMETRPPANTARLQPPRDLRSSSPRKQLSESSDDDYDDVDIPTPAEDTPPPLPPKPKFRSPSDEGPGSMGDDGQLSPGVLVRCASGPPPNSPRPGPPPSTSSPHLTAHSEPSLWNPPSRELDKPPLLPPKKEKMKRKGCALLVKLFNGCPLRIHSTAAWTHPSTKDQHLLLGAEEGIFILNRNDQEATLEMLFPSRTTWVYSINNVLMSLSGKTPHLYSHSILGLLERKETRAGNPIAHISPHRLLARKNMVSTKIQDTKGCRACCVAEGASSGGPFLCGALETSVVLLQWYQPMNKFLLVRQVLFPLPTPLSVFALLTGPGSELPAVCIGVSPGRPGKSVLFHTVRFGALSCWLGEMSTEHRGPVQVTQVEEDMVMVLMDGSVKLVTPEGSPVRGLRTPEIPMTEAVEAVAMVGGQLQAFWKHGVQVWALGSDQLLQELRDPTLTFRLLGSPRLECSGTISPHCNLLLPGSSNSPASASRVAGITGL
row,Structure (SMILES),Ki [nM]
1,"CN1CCN(c2ccc(-c3n[nH]c4ccc(-c5cnc6c(c5)CC(=O)N6)nc34)cc2)CC1 [Example 27, 5-(3-(4-(4-Methylpiperazin-1-yl)phenyl)-1H-pyrazolo[4,3-b]pyridin-5-yl)-1H-pyrrolo[2,3-b]pyridin-2(3H)-one]",≤ 100
2,Cc1cccc(F)c1-c1nc2c(-c3cnn(C)c3)n[nH]c2cc1C#N [Example 77],≤ 100
3,"CNCc1cc(C)c(-c2nc3c(-c4ccc(N5CCN(C)CC5)nc4)n[nH]c3cc2C#N)c(F)c1 [Example 67, 5-(2-Fluoro-6-methyl-4-((methylamino)methyl)phenyl)-3-(6-(4-methylpiperazin-1-yl)pyridin-3-yl)-1H-pyrazolo[4,3-b]pyridine-6-carbonitrile]",≤ 100
4,"CN1CCN(c2ccc(-c3n[nH]c4ccc(-c5ccccc5C(F)(F)F)nc34)cc2)CC1 [Example 5, 3-(4-(4-Methylpiperazin-1-yl)phenyl)-5-(2-(trifluoromethyl)phenyl)-1H-pyrazolo[4,3-b]pyridine]",≤ 100
5,"CN1CCN(c2ccc(-c3n[nH]c4ccc(-c5cccc6c5CCNC6)nc34)cc2)CC1 [Example 46, 5-(3-(4-(4-Methylpiperazin-1-yl)phenyl)-1H-pyrazolo[4,3-b]pyridin-5-yl)-1,2,3,4-tetrahydroisoquinoline]",≤ 100
6,"CN1CCN(c2ccc(-c3n[nH]c4ccc(-c5cncnc5)nc34)cc2)CC1 [Example 26, 3-(4-(4-Methylpiperazin-1-yl)phenyl)-5-(pyrimidin-5-yl)-1H-pyrazolo[4,3-b]pyridine]",≤ 100
7,"CNC(=O)c1ccc(-c2n[nH]c3cc(C#N)c(-c4c(C)cccc4F)nc23)cn1 [Example 65, 5-(6-Cyano-5-(2-fluoro-6-methylphenyl)-1H-pyrazolo[4,3-b]pyridin-3-yl)-N-methylpicolinamide]",≤ 100
8,"CCN1CCN(c2ccc(-c3n[nH]c4cc(C#N)c(-c5c(C)cc(CNC)cc5F)nc34)cc2)CC1 [Example 69, 3-(4-(4-Ethylpiperazin-1-yl)phenyl)-5-(2-fluoro-6-methyl-4-((methylamino)methyl)phenyl)-1H-pyrazolo[4,3-b]pyridine-6-carbonitrile]",≤ 100
9,CN1CCN(c2ccc(-c3n[nH]c4ccc(-c5ccccc5C#N)nc34)cc2)CC1 [Example 19],≤ 100
10,CCN1CCN(c2ccc(-c3n[nH]c4cc(C#N)c(-c5c(F)ccc6c5CCNC6)nc34)cc2)CC1 [Example 75],≤ 100
11,"CN1CCN(c2ccc(-c3n[nH]c4ccc(-c5cccn6ccnc56)nc34)cc2)CC1 [Example 44, 5-(Imidazo[1,2-a]pyridin-8-yl)-3-(4-(4-methylpiperazin-1-yl)phenyl)-1H-pyrazolo[4,3-b]pyridine]",≤ 100
12,"CNCc1cc(C)c(-c2nc3c(-c4ccc(C(=O)NC)nc4)n[nH]c3cc2C#N)c(F)c1 [Example 72, 5-(6-Cyano-5-(2-fluoro-6-methyl-4-((methylamino)methyl)phenyl)-1H-pyrazolo[4,3-b]pyridin-3-yl)-N-methylpicolinamide]",≤ 100
13,Cn1cc(-c2n[nH]c3cc(C#N)c(-c4c(F)ccc5c4CCNC5)nc23)cn1 [Example 74],≤ 100
14,"CNCc1cc(C)c(-c2nc3c(-c4cnc(N5CCN(C)CC5)nc4)n[nH]c3cc2C#N)c(F)c1 [Example 68, 5-(2-Fluoro-6-methyl-4-((methylamino)methyl)phenyl)-3-(2-(4-methylpiperazin-1-yl)pyrimidin-5-yl)-1H-pyrazolo[4,3-b]pyridine-6-carbonitrile]",≤ 100
15,"CN1CCN(c2ccc(-c3n[nH]c4ccc(-c5ccccc5F)nc34)cc2)CC1 [Example 4, 5-(2-Fluorophenyl)-3-(4-(4-methylpiperazin-1-yl)phenyl)-1H-pyrazolo[4,3-b]pyridine]",≤ 100
16,"CN1CCN(c2ccc(-c3n[nH]c4ccc(-c5cncc6oc(C(C)(C)C)nc56)nc34)cc2)CC1 [Example 33, 2-tert-Butyl-7-(3-(4-(4-methylpiperazin-1-yl)phenyl)-1H-pyrazolo[4,3-b]pyridin-5-yl)oxazolo[5,4-c]pyridine]",≤ 100
17,"CN1CCN(c2ccc(-c3n[nH]c4ccc(-c5cncc(-c6ncco6)c5)nc34)cc2)CC1 [Example 29, 2-(5-(3-(4-(4-Methylpiperazin-1-yl)phenyl)-1H-pyrazolo[4,3-b]pyridin-5-yl)pyridin-3-yl)oxazole]",≤ 100
18,"CNCc1cc(C)c(-c2nc3c(-c4cnn(C)c4)n[nH]c3cc2C#N)c(F)c1 [Example 66, 5-(2-Fluoro-6-methyl-4-((methylamino)methyl)phenyl)-3-(1-methyl-1H-pyrazol-4-yl)-1H-pyrazolo[4,3-b]pyridine-6-carbonitrile]",≤ 100
19,"CN1CCN(c2ccc(-c3n[nH]c4ccc(-c5cnc6cnn(C)c6c5)nc34)cc2)CC1 [Example 28, 1′-Methyl-3-(4-(4-methylpiperazin-1-yl)phenyl)-1H,1′H-5,6′-bipyrazolo[4,3-b]pyridine]",≤ 100
20,"CN1CCN(c2ccc(-c3n[nH]c4ccc(-c5c(F)cccc5CO)nc34)cc2)CC1 [Example 11, (3-Fluoro-2-(3-(4-(4-methylpiperazin-1-yl)phenyl)-1H-pyrazolo[4,3-b]pyridin-5-yl)phenyl)methanol]",≤ 100

# Next, values leading:
row,Ki [nM],Structure (SMILES)
1,≤ 100,"COc1ccc(F)c(F)c1-c1ccc2[nH]nc(-c3ccc(N4CCN(C)CC4)cc3)c2n1 [Example 10, 5-(2,3-Difluoro-6-methoxyphenyl)-3-(4-(4-methylpiperazin-1-yl)phenyl)-1H-pyrazolo[4,3-b]pyridine]"
2,≤ 100,"CNCc1cc(F)c(-c2ccc3[nH]nc(-c4ccc(N5CCN(C)CC5)cc4)c3n2)c(F)c1 [Example 61, 1-(3,5-Difluoro-4-(3-(4-(4-methylpiperazin-1-yl)phenyl)-1H-pyrazolo[4,3-b]pyridin-5-yl)phenyl)-N-methylmethanamine]"
3,≤ 100,"Cc1cccc(F)c1-c1ccc2[nH]nc(-c3ccc(N4CCN(C)CC4)cc3)c2n1 [Example 7, 5-(2-Fluoro-6-methylphenyl)-3-(4-(4-methylpiperazin-1-yl)phenyl)-1H-pyrazolo[4,3-b]pyridine]"
4,≤ 100,CCN1CCN(c2ccc(-c3n[nH]c4cc(C#N)c(-c5c(C)cccc5F)nc34)cc2)CC1 [Example 64]
5,≤ 100,"CN1CCN(c2ccc(-c3n[nH]c4ccc(-c5cnc6nccnc6c5)nc34)cc2)CC1 [Example 32, 7-(3-(4-(4-methylpiperazin-1-yl)phenyl)-1H-pyrazolo[4,3-b]pyridin-5-yl)pyrido[3,2-b]pyrazine]"
6,≤ 100,CN1CCN(c2ccc(-c3n[nH]c4cc(C#N)c(-c5c(F)ccc6c5CCNC6)nc34)cn2)CC1 [Example 76]
7,≤ 100,"Cc1c(N)cccc1-c1ccc2[nH]nc(-c3ccc(N4CCN(C)CC4)cc3)c2n1 [Example 6, 2-Methyl-3-(3-(4-(4-methylpiperazin-1-yl)phenyl)-1H-pyrazolo[4,3-b]pyridin-5-yl)aniline]"
8,≤ 100,"COc1cccc(F)c1-c1ccc2[nH]nc(-c3ccc(N4CCN(C)CC4)cc3)c2n1 [Example 8, 5-(2-Fluoro-6-methoxyphenyl)-3-(4-(4-methylpiperazin-1-yl)phenyl)-1H-pyrazolo[4,3-b]pyridine]"
9,≤ 100,"CNCc1cc(C)c(-c2nc3c(-c4ccc(C(C)(C)O)nc4)n[nH]c3cc2C#N)c(F)c1 [Example 71, 5-(2-Fluoro-6-methyl-4-((methylamino)methyl)phenyl)-3-(6-(2-hydroxypropan-2-yl)pyridin-3-yl)-1H-pyrazolo[4,3-b]pyridine-6-carbonitrile]"
10,≤ 100,"Cc1n[nH]cc1-c1ccc2[nH]nc(-c3ccc(N4CCN(C)CC4)cc3)c2n1 [Example 34, 5-(3-Methyl-1H-pyrazol-4-yl)-3-(4-(4-methylpiperazin-1-yl)phenyl)-1H-pyrazolo[4,3-b]pyridine]"
11,≤ 100,"CN1CCN(c2ccc(-c3n[nH]c4ccc(-c5cccc(F)c5F)nc34)cc2)CC1 [Example 9, 5-(2,3-Difluorophenyl)-3-(4-(4-methylpiperazin-1-yl)phenyl)-1H-pyrazolo[4,3-b]pyridine]"
12,≤ 100,"CN1CCN(c2ccc(-c3n[nH]c4ccc(-c5cncc6ccccc56)nc34)cc2)CC1 [Example 37, 4-(3-(4-(4-Methylpiperazin-1-yl)phenyl)-1H-pyrazolo[4,3-b]pyridin-5-yl)isoquinoline]"
13,≤ 100,"CN1CCN(c2ccc(-c3n[nH]c4ccc(-c5cnn6ccccc56)nc34)cc2)CC1 [Example 35, 3-(4-(4-Methylpiperazin-1-yl)phenyl)-5-(pyrazolo[1,5-a]pyridin-3-yl)-1H-pyrazolo[4,3-b]pyridine]"
14,≤ 100,"CCOC(=O)c1cccc(-c2ccc3[nH]nc(-c4ccc(N5CCN(C)CC5)cc4)c3n2)c1F [Example 12, Ethyl 2-fluoro-3-(3-(4-(4-methylpiperazin-1-yl)phenyl)-1H-pyrazolo[4,3-b]pyridin-5-yl)benzoate]"
15,≤ 100,"CN1CCN(c2ccc(-c3n[nH]c4ccc(-c5cccc6c5CCC6N)nc34)cc2)CC1 (stereo not shown) [Example 47, 4-(3-(4-(4-Methylpiperazin-1-yl)phenyl)-1H-pyrazolo[4,3-b]pyridin-5-yl)-2,3-dihydro-1H-inden-1-amine]"
16,≤ 100,"CN1CCN(c2ccc(-c3n[nH]c4ccc(-c5cccnc5)nc34)cc2)CC1 [Example 24, 3-(4-(4-Methylpiperazin-1-yl)phenyl)-5-(pyridin-3-yl)-1H-pyrazolo[4,3-b]pyridine]"
17,≤ 100,"CNC1CCc2c(-c3ccc4[nH]nc(-c5ccc(N6CCN(C)CC6)cc5)c4n3)cccc21 (stereo not shown) [Example 48, N-Methyl-4-(3-(4-(4-methylpiperazin-1-yl)phenyl)-1H-pyrazolo[4,3-b]pyridin-5-yl)-2,3-dihydro-1H-inden-1-amine]"
